This assay has as its target T1, RXFP2 (Homo sapiens, UniProt Q8WXD0).
T1 construct: expressed in transfected cells
Put plainly: HTRF cAMP assay in HEK293T cells stably expressing RXFP2 (HEK-RXFP2). Format: cell-based. The settings on record: for % EFF vs. 100 nM INSL3 (c): normalized to 100 nM INSL3 cAMP response; for % EFF vs. 1 nM INSL3 (b): normalized to 1 nM INSL3 cAMP response; for % EFF vs. 1 nM INSL3 (a): maximum cAMP response normalized to 1 nM INSL3 response. As to the method:
Compound efficacy and EC50 were determined by measuring cAMP induction in vitro. HEK293T cells stably expressing RXFP2 (HEK-RXFP2) produce cAMP when RXFP2 is activated, which can be measured in an antibody-based immunoassay utilizing a fluorescent readout (cAMP Gs HiRange Kit, PerkinElmer, Waltham, MA). HEK-RXFP2 cells were seeded in 96-well plates in serum-free DMEM and incubated overnight at 37° C., 5% CO2. Plates were then treated with a compound titration up to 25 μM or INSL3 control, in the presence of isobutylmethylxanthine phosphodiesterase inhibitor (IBMX) at 200 μM to amplify the cAMP signal, for 1 hour at 37° C., 5% CO2 before being processed as per kit instructions. Table 7 lists the efficacy and EC50 of compounds tested under different experimental conditions. […] In condition (a), 20,000 cells were seeded per well in the 96 well plate, and efficacy was determined by normalizing the maximum compound cAMP response to the 1 nM INSL3 cAMP response (% Efficacy 1 nM INSL3 (a)). In condition (b), 10,000 cells were seeded per well, and compound response was normalized to the 1 nM INSL3 cAMP response (% Efficacy 1 nM INSL3 (b)). In condition (c), 7,500 cells were seeded per well, compound response was normalized to the 100 nM INSL3 cAMP response, and IBMX was omitted (% Efficacy 100 nM INSL3 (c)). A range is given when compounds were tested multiple times. Where compounds were tested under multiple experimental conditions, the EC50 listed for the corresponding condition is marked (a) through (c) to correlate. When EC50 could not be calculated from the dose-response curve, EC50 is listed as not determined (ND).

Where [1] appears, read: condition (c): 7,500 cells/well, IBMX omitted.
Where [2] appears, read: condition (b): 10,000 cells/well, IBMX 200 μM.
The mark [3] stands for this setting: condition (a): 20,000 cells/well, IBMX 200 μM.

T1 sequence (Q8WXD0 whole entry): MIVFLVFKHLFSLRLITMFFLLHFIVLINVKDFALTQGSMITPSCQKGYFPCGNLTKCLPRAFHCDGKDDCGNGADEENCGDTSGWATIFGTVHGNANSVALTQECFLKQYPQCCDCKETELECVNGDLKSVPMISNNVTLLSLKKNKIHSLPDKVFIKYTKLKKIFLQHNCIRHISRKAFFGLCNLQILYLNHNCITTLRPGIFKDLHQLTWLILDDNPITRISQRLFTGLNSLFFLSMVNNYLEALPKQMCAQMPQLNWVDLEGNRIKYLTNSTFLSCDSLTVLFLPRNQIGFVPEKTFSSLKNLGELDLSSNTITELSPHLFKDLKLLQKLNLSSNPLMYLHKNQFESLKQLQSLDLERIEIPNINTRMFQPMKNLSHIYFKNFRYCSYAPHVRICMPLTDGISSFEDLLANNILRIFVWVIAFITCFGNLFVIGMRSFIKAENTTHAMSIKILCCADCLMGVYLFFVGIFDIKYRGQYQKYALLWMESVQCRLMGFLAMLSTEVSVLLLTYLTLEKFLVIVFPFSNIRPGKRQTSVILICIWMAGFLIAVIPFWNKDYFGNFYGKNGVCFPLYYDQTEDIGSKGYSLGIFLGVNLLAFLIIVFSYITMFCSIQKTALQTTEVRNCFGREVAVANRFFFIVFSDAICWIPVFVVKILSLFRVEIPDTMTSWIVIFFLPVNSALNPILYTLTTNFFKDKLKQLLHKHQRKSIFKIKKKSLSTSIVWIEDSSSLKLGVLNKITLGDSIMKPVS

`O=C1Nc2ccc(-c3cc(C4CC4)cc(C(F)(F)F)c3)cc2C(=O)N2CCN(C(=O)COc3ccc(OC(F)(F)F)cc3Br)C[C@@H]12` [Example 191, (S)-2-(2-(2-bromo-4-(trifluoromethoxy)phenoxy)acetyl)-8-(3-cyclopropyl-5-(trifluoromethyl)phenyl)-1,3,4,12a-tetrahydrobenzo[e]pyrazino[1,2-a][1,4]diazepine-6,12 (2H, 11H)-dione]: under setting [1], the half-maximal effective concentration (EC50) was found to be 0.189 µM and the “% EFF vs. 100 nM INSL3 (c)” value amounted to 66.75%.

In the case of `O=C1Nc2ccc(-c3cccc(C(F)(F)F)c3)cc2C(=O)N2CCN(C(=O)COc3ccc(C(F)(F)F)cc3Cl)C[C@@H]12` [Example 255, (S)-2-(2-(2-chloro-4-(trifluoromethyl)phenoxy)acetyl)-8-(3-(trifluoromethyl)phenyl)-1,3,4,12a-tetrahydrobenzo[e]pyrazino[1,2-a][1,4]diazepine-6,12 (2H, 11H)-dione], under setting [2], a half-maximal response (EC50) required 0.0097 µM and the “% EFF vs. 1 nM INSL3 (b)” value was 59.15%.

With `O=C1Nc2ccc(-c3cc(C(F)(F)F)ccc3F)cc2C(=O)N2CCN(C(=O)COc3ccc(OC(F)(F)F)cc3Cl)C[C@H]12` [Example 130, (R)-2-(2-(2-chloro-4-(trifluoromethoxy)phenoxy)acetyl)-8-(2-fluoro-5-(trifluoromethyl)phenyl)-1,3,4,12a-tetrahydrobenzo[e]pyrazino[1,2-a][1,4]diazepine-6,12 (2H, 11H)-dione], under setting [2], the “% EFF vs. 1 nM INSL3 (b)” value is given as 54.37%.

On to `COc1cc(OC(F)(F)F)ccc1OCC(=O)N1CCN2C(=O)c3cc(-c4cc(C(F)(F)F)cc(C(F)(F)F)c4)ccc3NC(=O)[C@@H]2C1` [Example 185, (S)-8-(3,5-bis(trifluoromethyl)phenyl)-2-(2-(2-methoxy-4-(trifluoromethoxy)phenoxy)acetyl)-1,3,4,12a-tetrahydrobenzo[e]pyrazino[1,2-a][1,4]diazepine-6,12 (2H, 11H)-dione], for which, under setting [1], the EC50 was 0.452 µM and the “% EFF vs. 100 nM INSL3 (c)” value is 63.16%.

`O=C1Nc2ccc(-c3cc(C(F)(F)F)cc(C(F)(F)F)c3)cc2C(=O)N2CCN(C(=O)COc3ccc(OC(F)(F)F)cc3Cl)C[C@@H]12` [Example 157, (S)-8-(3,5-Bis(trifluoromethyl)phenyl)-2-(2-(2-chloro-4-(trifluoromethoxy)phenoxy)acetyl)-1,3,4,12a-tetrahydrobenzo[e]pyrazino[1,2-a][1,4]diazepine-6,12 (2H, 11H)-dione]: under setting [2], the EC50 was found to be 0.0391 µM and the “% EFF vs. 1 nM INSL3 (b)” value is 108.89%.

As for `O=C1Nc2ccc(-c3cccc(C(F)(F)F)c3)cc2C(=O)N2CCN(C(=O)COc3ccccc3)C[C@@H]12` [Example 112, (S)-2-(2-phenoxyacetyl)-8-(3-(trifluoromethyl)phenyl)-1,3,4,12a-tetrahydrobenzo[e]pyrazino[1,2-a][1,4]diazepine-6,12 (2H, 11H)-dione], the “% EFF vs. 1 nM INSL3 (a)” value under setting [3] worked out at 12.93%.

`Cc1cc(-c2ccc3c(c2)C(=O)N2CCN(C(=O)COc4ccc(OC(F)(F)F)cc4Cl)CC2C(=O)N3)cc(C(F)(F)F)c1` (stereo not shown) [Example 105, 2-(2-(2-chloro-4-(trifluoromethoxy)phenoxy)acetyl)-8-(3-methyl-5-(trifluoromethyl)phenyl)-1,3,4,12a-tetrahydrobenzo[e]pyrazino[1,2-a][1,4]diazepine-6,12 (2H, 11H)-dione]: the “% EFF vs. 1 nM INSL3 (a)” value under setting [3] worked out at 143.62%. Under setting [2], the EC50 lay in the range of 0.0842 to 0.219 µM and the “% EFF vs. 1 nM INSL3 (b)” value is given as 81.13-152.31%.

Consider `Cc1cc(OC(F)(F)F)ccc1OCC(=O)N1CCN2C(=O)c3cc(-c4cccc(C(F)(F)F)c4)ccc3NC(=O)C2C1` (stereo not shown) [Example 64, 2-(2-(2-methyl-4-(trifluoromethoxy)phenoxy)acetyl)-8-(3-(trifluoromethyl)phenyl)-1,3,4,12a-tetrahydrobenzo[e]pyrazino[1,2-a][1,4]diazepine-6,12 (2H, 11H)-dione], for which, under setting [3], the EC50 lay within 0.037 to 0.0566 µM and the “% EFF vs. 1 nM INSL3 (a)” value is listed as 56.29-60.35%.

In the case of `Cc1cc(OC(F)(F)F)ccc1OCC(=O)N1CCN2C(=O)c3cc(-c4cc(F)cc(C(F)(F)F)c4)ccc3NC(=O)[C@@H]2C1` [Example 141, (S)-8-(3-fluoro-5-(trifluoromethyl)phenyl)-2-(2-(2-methyl-4-(trifluoromethoxy)phenoxy)acetyl)-1,3,4,12a-tetrahydrobenzo[e]pyrazino[1,2-a][1,4]diazepine-6,12 (2H, 11H)-dione], under setting [2], the EC50 lay within 0.036 to 0.0545 µM and the “% EFF vs. 1 nM INSL3 (b)” value is on record as 95.53-115.85%.

Regarding `Cc1cc(OC(F)(F)F)ccc1OCC(=O)N1CCN2C(=O)c3cc(-c4cccc(C(F)(F)F)c4)ccc3NC(=O)[C@@H]2C1` [Example 120, (S)-2-(2-(2-methyl-4-(trifluoromethoxy)phenoxy)acetyl)-8-(3-(trifluoromethyl)phenyl)-1,3,4,12a-tetrahydrobenzo[e]pyrazino[1,2-a][1,4]diazepine-6,12 (2H, 11H)-dione], under setting [2], the EC50 worked out at 0.0086 µM and the “% EFF vs. 1 nM INSL3 (b)” value worked out at 70.76%.

On to `Cc1ccc(C(F)(F)F)cc1-c1ccc2c(c1)C(=O)N1CCN(C(=O)COc3ccc(C(F)(F)F)cc3Cl)C[C@H]1C(=O)N2` [Example 137, (S)-2-(2-(2-chloro-4-(trifluoromethyl)phenoxy)acetyl)-8-(2-methyl-5-(trifluoromethyl)phenyl)-1,3,4,12a-tetrahydrobenzo[e]pyrazino[1,2-a][1,4]diazepine-6,12 (2H, 11H)-dione], for which, under setting [2], the “% EFF vs. 1 nM INSL3 (b)” value was determined as 53.62%.

On to `O=C1Nc2ncc(-c3cc(C(F)(F)F)cc(C(F)(F)F)c3)cc2C(=O)N2CCN(C(=O)COc3ccc(OC(F)(F)F)cc3I)C[C@@H]12` (single isomer, unassigned) [Example 202], for which, under setting [1], it took 0.0407 µM to reach a half-maximal effect (EC50) and the “% EFF vs. 100 nM INSL3 (c)” value is recorded as 102.23%.

In the case of `O=C1Nc2ccc(-c3cc(C(F)(F)F)cc(C(F)(F)F)c3)cc2CN2CCN(C(=O)COc3ccc(OC(F)(F)F)cc3I)C[C@@H]12` [Example 254, (S)-8-(3,5-bis(trifluoromethyl)phenyl)-2-(2-(2-iodo-4-(trifluoromethoxy)phenoxy)acetyl)-1,3,4,6,11,12a-hexahydrobenzo[e]pyrazino[1,2-a][1,4]diazepin-12 (2H)-one], under setting [1], the EC50 came to 8.61 µM and the “% EFF vs. 100 nM INSL3 (c)” value was 49.35%.

As to `O=C1Nc2ccc(-c3cc(O)cc(C(F)(F)F)c3)cc2C(=O)N2CCN(C(=O)COc3ccc(OC(F)(F)F)cc3Br)C[C@@H]12` [Example 173, (S)-2-(2-(2-Bromo-4-(trifluoromethoxy)phenoxy)acetyl)-8-(3-hydroxy-5-(trifluoromethyl)phenyl)-1,3,4,12a-tetrahydrobenzo[e]pyrazino[1,2-a][1,4]diazepine-6,12 (2H, 11H)-dione], under setting [2], the midpoint of the response, the EC50, lay at 0.0642 µM and the “% EFF vs. 1 nM INSL3 (b)” value stood at 114.71%.

`Cc1cc(OC(F)F)ccc1OCC(=O)N1CCN2C(=O)c3cc(-c4cc(O)cc(C(F)(F)F)c4)ccc3NC(=O)[C@@H]2C1` [Example 172]: the “% EFF vs. 1 nM INSL3 (b)” value under setting [2] turned out to be 70.66%.

As to `Cc1cc(OC(F)(F)F)ccc1OCC(=O)N1CCN2C(=O)c3cc(-c4cccc(C(F)F)c4)ccc3NC(=O)[C@@H]2C1` [Example 180, (S)-8-(3-(difluoromethyl)phenyl)-2-(2-(2-methyl-4-(trifluoromethoxy)phenoxy)acetyl)-1,3,4,12a-tetrahydrobenzo[e]pyrazino[1,2-a][1,4]diazepine-6,12 (2H, 11H)-dione], the “% EFF vs. 100 nM INSL3 (c)” value under setting [1] is listed as 23.13%.

The record behind these values is US20250134907A1, “FUSED DIAZEPINES AS AGONISTS OF THE INSULIN-LIKE 3 (INSL3) PEPTIDE RECEPTOR RXFP2 AND METHODS OF USE THEREOF” (The United States of America,as represented by the …, priority 2022, published 2025).
